Data reported in a melting point compilation (Tetko et al.; mined from patent text by program, amines drawn as free bases though some values may be those of a salt).

| Structure (SMILES) | melting point [°C] |
| --- | --- |
| O=C1C=C(N2CCC3(CC2)CSC2=C(O3)c3ccccc3C(=O)C2=O)c2ccccc2C1=O | 250 to 260 |
| CCOC(=O)C(CCc1ccccc1)=NO | 84 to 85 |
| O=C1c2cc3ccc4c(c3c(-c3ccc5c(c3)OCO5)c2C(=O)N1CCCO)OCO4 | 150 to 152 |
| Cc1ccc2c(c1)N=C(N1CCN(C)CC1)c1cccc3c1N2CC3 | 160 to 162 |
| Oc1c(C2(c3ccc4ccccc4c3O)c3ccccc3-c3ccccc32)ccc2ccccc12 | 268 to 290 |
| CC(C)(O)C#Cc1ccc2c(c1)NC(=O)CC(c1cccc(C#N)c1)=N2 | 243 |
| OCC(CO)(c1ccccc1)c1ccccc1 | 102 to 104 |
| O=C(N[C@H](Cc1ccc(C(F)(F)F)cc1)[C@H](O)c1ccc(F)cc1)c1cccc2ccccc12 (racemic) | 134 to 135 |
| CC1(C)Oc2ccc(C(F)(F)F)cc2[C@@H](NC(=O)Nc2ccccc2)[C@@H]1O (relative stereo) | 174 to 175 |
| C#CCOc1cc(C(=O)OC)cc(OC)c1OC | 72 to 73.5 |
| CN(CCCNC(=O)NCCCOc1cccc(CN2CCCCC2)c1)CCN(Cc1ccc(F)cc1)c1ccccn1 | 123 to 125 |
| CCNc1c(O)ccc(N(CCO)CCO)c1[N+](=O)[O-] | 115 |
| CCOc1nn(Cc2ccccc2OCc2nc(-c3ccccc3)oc2C)cc1CCC(=O)O | 127 to 128 |
| CS(=O)(=O)c1ccc(N2CCC(N3CCCC3)CC2)cc1 | 166 to 170 |
| COC(=O)C#CC(=O)c1ccc(OC)c(OC)c1OC | 74 |
| O=C(c1c[nH]c2cc(F)ccc12)C(F)(F)F | 234 to 235 |
| O=c1oc(-c2cccc(C(F)(F)F)c2)nc2cccc(F)c12 | 115 to 121 |
| C=C(COc1ccccc1C=NO)c1ccccc1 | 61 to 62 |
| CC(C)c1cc(C(C)C)c(CC(=O)NS(=O)(=O)Oc2c(C(C)C)cc([N+](=O)[O-])cc2C(C)C)c(C(C)C)c1 | 85 to 89 |
| CN1CCN(C2=Nc3cc(Br)ccc3Nc3nn(C)nc32)CC1 | 183 to 184 |
| C=CCc1cc(NC(C)=O)ccc1OCC1(O)CN2CCC1CC2 (stereo not drawn) | 170 to 172 |
| Cn1c(=O)c2nc(-c3ccc(/C=C/C(=O)O)cc3)[nH]c2n(Cc2ccccc2)c1=O | > 300 |

| Structure (SMILES) | melting point [°C] |
| --- | --- |
| CC(=O)Nc1nc(CN2CCN(C(c3ccccc3)c3ccccc3)CC2)c(Cl)s1 | 227 to 230 |
| O=C(c1cccs1)c1cnn2c(-c3cccc(NC(=S)Nc4cccc(-c5ccnc6c(C(=O)c7cccs7)cnn56)c4)c3)ccnc12 | 151 to 153 |
| c1ccc(Cn2c(NC3CCN(C4CCCCC4)CC3)nc3ccccc32)cc1 | 143 |
| C#CCOc1cc2c(cc1F)CCC2CCNC(=O)CC (stereo not drawn) | 78 to 81 |
| CCOc1cc(OCc2ccc(OCc3nc(-c4ccccc4)oc3C)cc2)ccc1CCC(=O)O | 135 to 136 |
| CCCn1c(N)cc(=O)n(CC2CCCCC2)c1=O | 121 to 122 |
| NC(=O)C(=O)NC(C(=O)O)c1ccco1 (stereo not drawn) | 174 |
| O=C(COCCc1coc2c(O)cccc12)c1ccccc1 | 114 to 115 |
| CCC(C)(CC)C(=O)O[C@H]1C[C@H](O)C=C2C=C[C@H](C)[C@H](CC[C@@H]3C[C@@H](O)CC(=O)O3)[C@H]21 | 152 to 154 |
| CCCCCCCc1ccc(C(=O)CCCCC(=O)O)cc1N | 100 to 102 |
| CC(C)(C)OC(=O)N1CCC[C@@H](OC(=O)c2ccc(C(=O)c3ccccc3)cc2)[C@H](NC(=O)c2ccc(OC(C)(C)C)cc2)C1 | 145 to 148 |
| CC1=C(C(=O)OC(C)C)C(c2cccc([N+](=O)[O-])c2)C(C(=O)OC2CN(C(c3ccccc3)c3ccccc3)C2)=C(N)N1 (stereo not drawn) | 95 to 98 |
| NC(=O)CC(O)COC(c1ccccc1)(c1ccccc1)c1ccccc1 (stereo not drawn) | 59 to 60 |
| CCN(CCOC)C(=O)c1cc(-c2ccccc2)c(=O)n2c1-c1ccccc1C2 | 139 to 140 |
| Nc1ccc(C(=O)c2ccccc2)cc1C=O | 125 |
| c1ccc2c(c1)ccn2Cc1ccncc1 | 65 to 68 |
| COc1cccc(NC(=O)NCC(=O)N(CC(=O)N2CCCC(C)(C)C2)c2ccccc2)c1 | 200 |
| O=C1c2nc[nH]c2N(Cc2ccccc2)C2=NCCN12 | 262 to 264 |
| CCOc1ccc(C(=O)N2c3ccccc3C(N3CCCc4ccccc43)CC2C)cc1OCC (stereo not drawn) | 157 to 158 |
| COC(=O)CCC(=O)c1ccc(-c2ccc(F)cc2)cc1 | 132 to 133 |
| O=S1(=O)NC(C2CCCCC2)Nc2ccc(-c3ccccc3F)cc21 (stereo not drawn) | 249 to 250 |
| NC(=O)[C@@H]1C[C@H](C(=O)O)Nc2cc(Cl)cc(Cl)c21 (relative stereo) | 220 to 222 |

| Structure (SMILES) | melting point [°C] |
| --- | --- |
| Cc1c(F)c(N2CCC(N)C2)c(C)c2c1c(=O)c(C(=O)O)cn2C1CC1 (stereo not drawn) | 96 to 98 |
| O=CNCC1CC2C3CC4C2C4C13 (stereo not drawn) | 225 to 226 |
| O=S1(=O)C(c2ccsc2)=CCC=C1c1ccsc1 | 162 to 164 |
| Cc1cccc(NC(=O)NC2N=C(CC(C)C)c3cccc(C)c3N(CC(=O)N3CC4CCC(CC4)C3)C2=O)c1 (stereo not drawn) | 134 to 135 |
| N#Cc1cc(F)ccc1N1CCN(Cc2cn3cc(Cl)ccc3n2)CC1 | 179 to 180 |
| CCNC(=NC#N)NCc1cccnc1 | 177 to 179 |
| CC1SCN(CCCCN2CCN(c3nsc4ccccc34)CC2)C1=O (stereo not drawn) | 113 to 115 |
| O=C(Nc1ccc2oc(=O)[nH]c2c1)C(=O)N1CCC(Cc2ccccc2)CC1 | 187 to 190 |
| CC(C)(C)OC(=O)C=CC1C(C(=O)OC(C#N)c2ccc(F)c(Oc3ccccc3)c2)C1(C)C (stereo not drawn) | 114 |
| NCCC1CCC(C(O)(P(=O)(O)O)P(=O)(O)O)CC1 (stereo not drawn) | 226 to 230 |
| CC(C)(C)OC(=O)NCc1cccc(C(=O)OCC#N)c1O | 144 to 146 |
| CCCOc1cc([N+](=O)[O-])ccc1[N+](=O)[O-] | 52 to 54 |
| Cc1oc(-c2ccco2)nc1COc1ccc(COc2nn(Cc3ccccc3)cc2C(=O)O)cc1OCc1ccccc1 | 184 to 185 |
| O=C1NC(=O)C(CCOc2ccc(F)cc2)S1 (stereo not drawn) | 94 to 96 |
| CN(C)Nc1nc(Cl)nc2c1ncn2C1OC(CCl)C(O)C1O (stereo not drawn) | 188 to 189 |
| CC(C)(C)c1cc(-c2nc(Br)no2)cc(C(C)(C)C)c1O | 113 to 115 |
| CCCN(C(N)=S)C(COC1CCCCO1)c1ccccc1 (stereo not drawn) | 82 |
| CC1(C)CN=C(c2cc3cc(F)cc(NS(=O)(=O)c4cccs4)c3[nH]2)S1 | 175 to 176 |
| O=c1ccc(CO)c[nH]1 | 130 |
| Cc1ccc(C(=O)NC(NC(=S)Nc2cccnc2)C(C)C)cc1 (stereo not drawn) | 184 to 186 |

Further lines, results first:

| melting point [°C] | Structure (SMILES) |
| --- | --- |
| 128 to 130 | COc1ccc(C=Cc2ccncc2)cc1 |
| 105 to 107 | CC(c1cccc(-c2ncc(OCCCN(C)C)cn2)c1)n1nc(-c2cccc(C#N)c2)ccc1=O (stereo not drawn) |
| 54 to 64 | O=C(O)c1ccc(/C=C\C(c2cc(Cl)c(Cl)c(Cl)c2)C(F)(F)F)cc1Br (stereo not drawn) |
| 297 to 299 | COc1ccc2c(Cc3c(Cl)cncc3Cl)nnc(NN)c2c1 |
| 200 | N#Cc1cccc(-c2nc(=O)c3ccccc3s2)c1 |
| 245 to 246 | COc1cccc(N(C)c2nc(N)nc3[nH]c4ccccc4c23)c1 |
| 287 to 289 | CC(C)(C)C(=O)c1c[nH]c2ncc(N3Cc4ccccc4C3=O)nc12 |
| > 220 | Nc1nc(-c2c(-c3ccccc3)c3ccccc3[nH]c2=O)cs1 |
| 203 to 205 | COc1cccc2c3c(c(=O)[nH]c12)CCCN3c1ccccc1C |
| 60 to 85 | CN(Cc1ccccc1)c1c(-c2ccc(S(C)(=O)=O)cc2)cnn(-c2cccc(Cl)c2)c1=O |
| 245 | CCC(OC(C)=O)c1nc2c(C(F)(F)F)cccc2c(O)c1C(=O)Nc1nccs1 (stereo not drawn) |
| 59 to 61 | COc1ccc2c(c1)NCCO2 |
| 179 to 185 | CNC(=O)c1cccc(F)c1Nc1nc(Nc2ccc3c(c2)N(C(C)=O)CC(=O)NC3)ncc1Cl |
| 228 to 234 | COc1cc2ncnc(NC3=CC(=O)C(Oc4ccccc4)=CC3=O)c2cc1OC |
| 109 to 111 | Nc1cc(Cl)c(Cl)c(Cl)c1N |
| 257 to 258 | Cn1c(C(F)(F)F)cc(=O)n(-c2ccc(Cl)c(S(N)(=O)=O)c2)c1=O |
| 173 to 180 | COc1cc(C)nc(NC(=O)NS(=O)(=O)c2cccc(NC(=O)OC(C)C)c2)n1 |

| melting point [°C] | Structure (SMILES) |
| --- | --- |
| 162 to 165 | c1cncc(-c2nnc(NCC3CC3)s2)c1 |
| 157 to 158 | CCCc1nn2ncc(C(=O)OCOC(=O)C(C)(C)C)c2n1Cc1ccc(-c2ccccc2-c2nnn[nH]2)cc1 |
| 156 to 158 | O=C(c1cc(Br)c(O)c(Br)c1)c1c(Cc2ccccc2)oc2ccccc12 |
| 91 to 92 | OCCCc1ccc(SCc2coc(/C=C/c3ccccc3)n2)cc1 |
| 232 to 236 | CCN1CCN(C/C=C/c2ccc3c(Nc4ccc(Sc5nccn5C)c(Cl)c4)c(C#N)cnc3c2)CC1 |
| 247 to 250 | CCc1cnc(N2CCC(c3nc4cc(-c5ccc(S(C)(=O)=O)cc5F)ccc4o3)CC2)nc1 |
| 103 to 110 | COc1cc2c(cc1Nc1ncc(Cl)c(N[C@@H]3CCCC[C@H]3NS(C)(=O)=O)n1)CCN(CC(F)(F)F)CC2 |
| 225 | CCNc1ccc2c(c1)Cc1c-2[nH]c2ccccc12 |
| 239 to 240 | NNC(=O)c1ccnc2[nH]ccc12 |
| 190 to 194 | COc1cc2c(c(OC)c1/C=C/c1ccc(C(N)=O)cc1)C(C)(C)CCC2(C)C |
| 74 to 75 | Cc1ccc(-c2nc(Cc3cccc(Br)c3)c(C)o2)cc1 |
| 238 to 239 | Cc1nn(-c2c(Cl)cc(C(F)(F)F)cc2Cl)nc1C=NC(C#N)=C(N)C#N |
| 48 to 49 | CCc1nc2cnc3ccccc3c2s1 |
| 101 to 103 | CN(C)c1cccc(OCC(=O)c2cccc(Cl)c2)c1 |
| 236 to 237 | COc1ccc2nc(-c3cc(C(F)(F)F)nn3-c3ccc(S(N)(=O)=O)cc3)sc2c1 |
| > 220 | NC(=O)Nc1ccc(-c2nnc(CSCCOc3ccccc3)o2)cc1 |
| 123 to 124 | C=CCOc1ccc(C(=O)C=Cc2cc(OC)cc(OC)c2C)cc1 |
